# Where two headings read alike, the source gives them in different places.
# What was measured:
# [1] = Plasma pharmacokinetics after single and multiple oral administration of A. paniculata aqueous extract capsules in healthy participants (HPLC-MS/MS, non-compartmental analysis); type: in vivo, human; parameters: MRT: unit: h; Cmax: unit: ng/mL
# Experimental: (§1) An opened-label, two-dosage, single- and multiple-oral dosing, single center, phase I safety and pharmacokinetic study was conducted in healthy participants while they were under a fasting condition. […] Two weeks prior to the beginning of the clinical study, the volunteers were advised to abstain from other dietary supplements, herbal products, or any concomitant medicines. During the period of the study, no other medications were allowed. All participants fasted overnight for at least 8 h before drug administration. The study conducted a single-dose investigation on day 1 by oral administering A. paniculata extract capsules once in both groups. Twelve participants in group 1 received 3 capsules orally (equivalent to 60 mg of andrographolide) with 240 mL of water, while another twelve participants in group 2 received 6 capsules (equivalent to 120 mg of andrographolide). This was followed by serial blood sampling for up to 24 h after dosing. For blood collection, 6 mL of venous blood in EDTA tube was collected via a forearm vein catheter at each time point including pre-dose (0 h), and post-dose after oral administration (T 0.167, 0.333, 0.5, 0.75, 1, 1.5, 2, 4, 6, 8, 10, 12 and 24 h). Subsequently, observation of elimination continued until 48 h post-dose to ensure complete excretion of the major active diterpenoids through urine. Urine samples were collected at day 0 (the day prior to dosing) and day 1–2 (T 0–4, 4–8, 8–12,12–24, 24–32, 32–40, and 40–48 h after dosing). The study then proceeded to investigate multiple doses in both groups by administering continuous oral doses from day 3 until the morning of day 5. (dosing at T48, 56, 64, 72, 80, 88, and 96 h). In group 1, three capsules were administered orally before meals, three times a day (3 × 3 capsules at 8-h intervals, calculated as 180 mg/day of andrographolide); whereas in group 2, six capsules were administered daily, three times a day (6 × 3 capsules at 8-h intervals, calculated as 360 mg/day of andrographolide). For serial blood sampling of multiple doses, 6 mL of blood samples were collected starting in the morning of day 5 (sampling timepoints T 96, 96.167, 96.333, 96.5, 96.75, 97, 97.5, 98, 100, 102, and 104 h post dose).
# (§2) All collected blood samples were centrifuged at 4,000 rpm, 4^οC, for 5 min. Plasma was collected and stored in cryotubes at −70^οC until analysis. Urine was kept as 10 mL aliquot samples at each time point and stored at −70^οC until analysis. Extraction was performed by protein precipitation method as previously reported ([Songvut et al., 2023]). Briefly, 50 µL of either a plasma or urine sample was mixed with 200 µL of methanol containing an internal standard (IS) of digoxin (50 ng/mL). Pretreated samples were vortexed for 10 min and were then centrifuged at 12,000 rpm, 4°C, for 10 min. The supernatants were filtered through a 0.2 µm PVDF membrane and were subsequently transferred to vials for HPLC-MS/MS analysis.
# (§3) Hydrolysis of the glucuronidated and sulfated conjugates was conducted by enzymatic incubation as our previous published method ([Songvut et al., 2023]). To analyze the metabolic conjugations, 50 μL of either a plasma or urine sample was pre-incubated at 37^οC with 50 µL of either of β-glucuronidase in sodium phosphate buffer (pH 6.8) for 30 min, or sulfatase in sodium acetate buffer (pH 5) for 2 h. IS (50 ng/mL) was then added along with 150 μL of methanol to precipitate protein. The extracted samples were then vortexed and centrifuged at 12,000 rpm, 4^οC, for 10 min. The supernatants were collected by filtering through a 0.2-µm PVDF membrane before HPLC-MS/MS injection.
# (§4) Analysis for the concentrations of targeted compounds in plasma and urine samples were carried out using HPLC-MS/MS at the Laboratory of Pharmacology, Chulabhorn Research Institute, Bangkok, Thailand. The quantitative determination was performed according to a previously validated method ([Songvut et al., 2023]). […]
# [2] = Cumulative urinary excretion after single oral administration of A. paniculata aqueous extract capsules in healthy participants; type: in vivo, human; conditions: urine T 0–48 h
# Experimental: as §1, §2, §3, §4
# [3] = single oral dose equivalent to 60 mg andrographolide, n = 12, mean ± SD
# [4] = single oral dose equivalent to 120 mg andrographolide, n = 11, mean ± SD
# [5] = multiple oral doses 60 mg × 3 times/day of andrographolide, n = 12, mean ± SD
# [6] = multiple oral doses 60 mg × 3 times/day of andrographolide, n = 12, median [IQR]
# [7] = multiple oral doses 120 mg × 3 times/day of andrographolide, n = 11, mean ± SD
# [8] = multiple oral doses 120 mg × 3 times/day of andrographolide, n = 11, median [IQR]
# [9] = single oral dose equivalent to 60 mg andrographolide, n = 12, median [IQR]
# [10] = single oral dose equivalent to 120 mg andrographolide, n = 11, median [IQR]
compound,measurement,setting,value
"C=C1CC[C@@H]2[C@](C)(CO)[C@H](O)CC[C@@]2(C)[C@@H]1CCC1=CCOC1=O [14-Deoxyandrographolide, 14-deoxyandrographolide]",CL/F,"[1]; human, plasma, multiple oral doses 60 mg × 3 times/day of andrographolide, n = 12, mean ± SD",255 mL/min/kg
same,AUC(0-t),"[1]; human, plasma, multiple oral doses 60 mg × 3 times/day of andrographolide, n = 12, mean ± SD, read-out: AUC(0–8h)",11.3 ± 3.3 ng·h/mL
same,MRT,"[1]; human, plasma, multiple oral doses 60 mg × 3 times/day of andrographolide, n = 12, mean ± SD, read-out: MRT",1.5 ± 0.11 h
same,Vd/F,"[1]; human, plasma, multiple oral doses 60 mg × 3 times/day of andrographolide, n = 12, mean ± SD, read-out: Vd/F",5.4 ± 3.1 L/kg
same,half-life,"[1]; human, plasma, multiple oral doses 60 mg × 3 times/day of andrographolide, n = 12, median [IQR]",0.23 h
same,Tmax,"[1]; human, plasma, multiple oral doses 60 mg × 3 times/day of andrographolide, n = 12, median [IQR], read-out: Tmax",1 h
same,CL/F,"[1]; human, plasma, multiple oral doses 120 mg × 3 times/day of andrographolide, n = 11, mean ± SD",302 mL/min/kg
same,AUC(0-t),"[1]; human, plasma, multiple oral doses 120 mg × 3 times/day of andrographolide, n = 11, mean ± SD, read-out: AUC(0–8h)",20 ± 9.1 ng·h/mL
same,MRT,"[1]; human, plasma, multiple oral doses 120 mg × 3 times/day of andrographolide, n = 11, mean ± SD, read-out: MRT",1.6 ± 0.07 h
same,Vd/F,"[1]; human, plasma, multiple oral doses 120 mg × 3 times/day of andrographolide, n = 11, mean ± SD, read-out: Vd/F",5.7 ± 2.8 L/kg
same,half-life,"[1]; human, plasma, multiple oral doses 120 mg × 3 times/day of andrographolide, n = 11, median [IQR]",0.21 h
same,Tmax,"[1]; human, plasma, multiple oral doses 120 mg × 3 times/day of andrographolide, n = 11, median [IQR], read-out: Tmax",1 h
same,Tmax,"[1]; human, plasma, single oral dose equivalent to 60 mg andrographolide, n = 12, median [IQR], read-out: Tmax",1 h
same,CL/F,"[1]; human, plasma, single oral dose equivalent to 120 mg andrographolide, n = 11, mean ± SD",293 mL/min/kg
same,AUC(0-inf),"[1]; human, plasma, single oral dose equivalent to 120 mg andrographolide, n = 11, mean ± SD, read-out: AUC(0-inf)",20.5 ± 8.8 ng·h/mL
same,AUC(0-t),"[1]; human, plasma, single oral dose equivalent to 120 mg andrographolide, n = 11, mean ± SD, read-out: AUC(0–24h)",20.5 ± 8.8 ng·h/mL
same,MRT,"[1]; human, plasma, single oral dose equivalent to 120 mg andrographolide, n = 11, mean ± SD, read-out: MRT",1.5 ± 0.08 h
same,Vd/F,"[1]; human, plasma, single oral dose equivalent to 120 mg andrographolide, n = 11, mean ± SD, read-out: Vd/F",5.5 ± 2.9 L/kg
same,half-life,"[1]; human, plasma, single oral dose equivalent to 120 mg andrographolide, n = 11, median [IQR]",0.21 h
same,Tmax,"[1]; human, plasma, single oral dose equivalent to 120 mg andrographolide, n = 11, median [IQR], read-out: Tmax",1 h
same,Cmax,"[1]; human, multiple oral doses 60 mg × 3 times/day of andrographolide, plasma T 0–8 h, n = 12, mean ± SD, read-out: Cmax",6.6 ± 1.9 ng/mL
same,Cmax,"[1]; human, multiple oral doses 120 mg × 3 times/day of andrographolide, plasma T 0–8 h, n = 11, mean ± SD, read-out: Cmax",11.3 ± 5.5 ng/mL
same,Cmax,"[1]; human, single oral dose equivalent to 60 mg andrographolide, plasma T 0–24 h, n = 12, mean ± SD, read-out: Cmax",4.2 ± 3.4 ng/mL
same,Cmax,"[1]; human, single oral dose equivalent to 120 mg andrographolide, plasma T 0–24 h, n = 11, mean ± SD, read-out: Cmax",11.6 ± 5.4 ng/mL
same,Cumulative urine,[2]; [3],108 ± 36.5 µg
same,Cumulative urine,[2]; [4],199 ± 77.3 µg
"C=C1CCC2C(C)(CO)C(O)CCC2(C)C1C=CC1=CCOC1=O (stereo not shown) [14-Deoxy-11,12-didehydroandrographolide, 14-deoxy-11, 12-didehydroandrographolide]",AUC(0–8h),[1]; [5],329 ± 55.5 ng·h/mL
same,Cl/F,[1]; [5],16.3 ± 3.83 mL/min/kg
same,MRT,[1]; [5],3.0 ± 0.61 h
same,Vd/F,[1]; [5],2.6 ± 1.8 L/kg
same,Half life,[1]; [6],1.6[0.80] h
same,Tmax,[1]; [6],1.0[0.20] h
same,Cmax,"[1]; multiple oral doses 60 mg × 3 times/day of andrographolide, plasma T 0–8 h, n = 12, mean ± SD",137 ± 29.3 ng/mL
same,AUC(0–8h),[1]; [7],693 ± 165 ng·h/mL
same,Cl/F,[1]; [7],14.2 ± 2.33 mL/min/kg
same,MRT,[1]; [7],4.5 ± 1.2 h
same,Vd/F,[1]; [7],4.4 ± 2.0 L/kg
same,Half life,[1]; [8],3.0[1.5] h
same,Tmax,[1]; [8],1.0[0.33] h
same,Cmax,"[1]; multiple oral doses 120 mg × 3 times/day of andrographolide, plasma T 0–8 h, n = 11, mean ± SD",237 ± 41.4 ng/mL
same,AUC(0-inf),[1]; [3],328 ± 102 ng·h/mL
same,AUC(0–24h),[1]; [3],328 ± 102 ng·h/mL
same,Cl/F,[1]; [3],18.3 ± 4.5 mL/min/kg
same,MRT,[1]; [3],4.3 ± 0.44 h
same,Vd/F,[1]; [3],2.1 ± 0.60 L/kg
same,Half life,[1]; [9],1.4[0.07] h
same,Tmax,[1]; [9],1.0[0.33] h
same,Cmax,"[1]; single oral dose equivalent to 60 mg andrographolide, plasma T 0–24 h, n = 12, mean ± SD",98.6 ± 40.3 ng/mL
same,AUC(0-inf),[1]; [4],674 ± 274 ng·h/mL
same,AUC(0–24h),[1]; [4],674 ± 274 ng·h/mL
same,Cl/F,[1]; [4],18.3 ± 6 mL/min/kg
same,MRT,[1]; [4],4.1 ± 0.65 h
same,Vd/F,[1]; [4],2.0 ± 0.69 L/kg
same,Half life,[1]; [10],1.2[0.06] h
same,Tmax,[1]; [10],1.5[0.25] h
same,Cmax,"[1]; single oral dose equivalent to 120 mg andrographolide, plasma T 0–24 h, n = 11, mean ± SD",211 ± 138 ng/mL
same,Cumulative urine,[2]; [3],70.6 ± 27.6 µg
same,Cumulative urine,[2]; [4],159 ± 56.8 µg

# From article PMC10469688, “Comparative pharmacokinetics and safety evaluation of high dosage regimens of Andrographis paniculata aqueous extract after single and multiple oral administration in healthy participants” (Frontiers in Pharmacology, 2023)
